Measured values taken from the supplement of paper PMC10627819.

What was measured:
Conditions in all cases: main component drawn
S. aureus DSM 20231 = test: Bliss interaction score (quartile over a dose matrix) (fitness difference); higher = more antagonism (negative = synergy)
Procedure, shortened: (§1)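 The Bliss score was calculated by subtracting the expected fitness, the product of single-drug values, from the observed fitness. OD595 at entry into stationary phase, over the plate's robust no-drug mean and capped at 1, served as the fitness readout. Single-drug values were inferred from combination data, and scores are summarised by quartiles across technical, biological and donor/recipient replicates.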

B. subtilis 168 [1] = test: as above
Procedure, shortened: as §1

S. pneumoniae D39V [2] = test: as above
Procedure, shortened: as §1

S. aureus Newman [3] = test: as above
Procedure, shortened: as §1

B. subtilis 168 [4] = test: fitness (endpoint OD595 vs no drug) (fraction); higher = more growth
Procedure, shortened: (§2)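 Growth medium was TSB, LB Lennox or CY, and plates were kept at 37 °C. Inoculation was at OD595 0.01 in 384-well plates, at 30 µl per well or 55 µl for S. pneumoniae. OD595 was monitored every 30 min for 14 h and background-subtracted using the first reading. Fitness is the optical density on entering stationary phase divided by the robust mean of no-drug controls, with values capped at 1.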

S. pneumoniae D39V [5] = test: as above
Procedure, shortened: as §2

S. aureus Newman [6] = test: as above
Procedure, shortened: as §2
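For Bliss interaction score (quartile over a dose matrix) in this document: first quartile when negative (synergy) and third quartile when positive (antagonism).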

CNC(C)C1CCC(N)C(OC2C(N)CC(N)C(OC3OCC(C)(O)C(NC)C3O)C2O)O1 (stereo not given) [Gentamicin] + CN[C@@H]1[C@H](O[C@H]2[C@H](O[C@H]3[C@H](O)[C@@H](O)[C@H](N=C(N)N)[C@@H](O)[C@@H]3N=C(N)N)O[C@@H](C)[C@]2(O)C=O)O[C@@H](CO)[C@H](O)[C@H]1O [Streptomycin]
Conditions | Bliss interaction score
B. subtilis 168 [1] | -0.17
S. aureus DSM 20231 | -0.404
S. aureus Newman [3] | 0.0694
S. pneumoniae D39V [2] | 0.0468

fitness
Conditions | partner 1 µg/mL | partner 2 µg/mL | partner 4 µg/mL | partner 8 µg/mL
B. subtilis 168 [4], first compound 0.125 µg/mL | – | – | – | 0.0351
B. subtilis 168 [4], first compound 0.25 µg/mL | – | 0.0785 | 0.05 | 0.0399
S. aureus Newman [6], first compound 0.375 µg/mL | ≥ 1 | 0.929 | – | –
S. aureus Newman [6], first compound 0.5 µg/mL | 0.957 | 0.953 | 0.978 | –
S. aureus Newman [6], first compound 0.75 µg/mL | 0.99 | 0.848 | – | –
S. aureus Newman [6], first compound 1 µg/mL | 0.991 | ≥ 1 | ≥ 1 | –
S. aureus Newman [6], first compound 2 µg/mL | 0.996 | ≥ 1 | 0.946 | –
S. pneumoniae D39V [5], first compound 2 µg/mL | – | 0.918 | 0.922 | 0.899
S. pneumoniae D39V [5], first compound 4 µg/mL | – | 0.895 | 0.942 | 0.848
S. pneumoniae D39V [5], first compound 8 µg/mL | – | 0.912 | 0.912 | 0.836

S. pneumoniae D39V [5], partner 16 µg/mL, one replicate
Conditions | fitness
first compound 2 µg/mL | 0.779
first compound 4 µg/mL | 0.736
first compound 8 µg/mL | 0.628

CNC(C)C1CCC(N)C(OC2C(N)CC(N)C(OC3OCC(C)(O)C(NC)C3O)C2O)O1 (stereo not given) [Gentamicin] + COc1c(N2C[C@@H]3CCCN[C@@H]3C2)c(F)cc2c(=O)c(C(=O)O)cn(C3CC3)c12 [Moxifloxacin]
Conditions | Bliss interaction score
B. subtilis 168 [1] | 0.0561
S. aureus DSM 20231 | 0.0845
S. aureus Newman [3] | 0.0666
S. pneumoniae D39V [2] | -0.0566

Conditions | fitness
B. subtilis 168 [4], first compound 0.0625 µg/mL, partner 0.0625 µg/mL | 0.0368
B. subtilis 168 [4], first compound 0.0625 µg/mL, partner 0.125 µg/mL | 0.048
B. subtilis 168 [4], first compound 0.0625 µg/mL, partner 2 µg/mL | 0.0515
B. subtilis 168 [4], first compound 0.0625 µg/mL, partner 4 µg/mL | 0.0389
B. subtilis 168 [4], first compound 0.0625 µg/mL, partner 8 µg/mL | 0.0196
B. subtilis 168 [4], first compound 0.125 µg/mL, partner 0.0625 µg/mL | 0.0582
B. subtilis 168 [4], first compound 0.125 µg/mL, partner 0.125 µg/mL | 0.0573
B. subtilis 168 [4], first compound 0.125 µg/mL, partner 2 µg/mL | 0.0401
B. subtilis 168 [4], first compound 0.125 µg/mL, partner 4 µg/mL | 0.0418
B. subtilis 168 [4], first compound 0.125 µg/mL, partner 8 µg/mL | 0.0222
B. subtilis 168 [4], first compound 0.25 µg/mL, partner 0.0312 µg/mL | 0.0645
B. subtilis 168 [4], first compound 0.25 µg/mL, partner 0.0625 µg/mL | 0.069
B. subtilis 168 [4], first compound 0.25 µg/mL, partner 0.125 µg/mL | 0.069
B. subtilis 168 [4], first compound 0.25 µg/mL, partner 2 µg/mL | 0.0498
B. subtilis 168 [4], first compound 0.25 µg/mL, partner 4 µg/mL | 0.0517
B. subtilis 168 [4], first compound 0.25 µg/mL, partner 8 µg/mL | 0.0301
S. aureus Newman [6], first compound 0.375 µg/mL, partner 0.0075 µg/mL | 0.733
S. aureus Newman [6], first compound 0.375 µg/mL, partner 0.015 µg/mL | 0.515
S. aureus Newman [6], first compound 0.375 µg/mL, partner 0.03 µg/mL | 0.153
S. aureus Newman [6], first compound 0.5 µg/mL, partner 0.0075 µg/mL | 0.801
S. aureus Newman [6], first compound 0.5 µg/mL, partner 0.015 µg/mL | 0.74
S. aureus Newman [6], first compound 0.75 µg/mL, partner 0.0075 µg/mL | 0.722
S. aureus Newman [6], first compound 0.75 µg/mL, partner 0.015 µg/mL | 0.544
S. aureus Newman [6], first compound 0.75 µg/mL, partner 0.03 µg/mL | 0.189
S. aureus Newman [6], first compound 1 µg/mL, partner 0.0075 µg/mL | 0.841
S. aureus Newman [6], first compound 1 µg/mL, partner 0.015 µg/mL | 0.776
S. aureus Newman [6], first compound 1.5 µg/mL, partner 0.015 µg/mL | 0.195
S. aureus Newman [6], first compound 1.5 µg/mL, partner 0.03 µg/mL | 0.0456
S. aureus Newman [6], first compound 2 µg/mL, partner 0.0075 µg/mL | 0.879
S. aureus Newman [6], first compound 2 µg/mL, partner 0.015 µg/mL | 0.777
S. pneumoniae D39V [5], first compound 2 µg/mL, partner 0.005 µg/mL | ≥ 1
S. pneumoniae D39V [5], first compound 2 µg/mL, partner 0.01 µg/mL | 0.987
S. pneumoniae D39V [5], first compound 2 µg/mL, partner 0.02 µg/mL | 0.949
S. pneumoniae D39V [5], first compound 2 µg/mL, partner 0.0312 µg/mL | 0.0909
S. pneumoniae D39V [5], first compound 2 µg/mL, partner 0.0625 µg/mL | 0.0352
S. pneumoniae D39V [5], first compound 2 µg/mL, partner 0.125 µg/mL | 0.0208
S. pneumoniae D39V [5], first compound 4 µg/mL, partner 0.005 µg/mL | 0.999
S. pneumoniae D39V [5], first compound 4 µg/mL, partner 0.01 µg/mL | 0.998
S. pneumoniae D39V [5], first compound 4 µg/mL, partner 0.02 µg/mL | 0.987
S. pneumoniae D39V [5], first compound 4 µg/mL, partner 0.0312 µg/mL | 0.062
S. pneumoniae D39V [5], first compound 4 µg/mL, partner 0.0625 µg/mL | 0.0383
S. pneumoniae D39V [5], first compound 4 µg/mL, partner 0.125 µg/mL | 0.0445
S. pneumoniae D39V [5], first compound 8 µg/mL, partner 0.005 µg/mL | 0.972
S. pneumoniae D39V [5], first compound 8 µg/mL, partner 0.01 µg/mL | 0.972
S. pneumoniae D39V [5], first compound 8 µg/mL, partner 0.02 µg/mL | 0.925
S. pneumoniae D39V [5], first compound 8 µg/mL, partner 0.0312 µg/mL | 0.0628
S. pneumoniae D39V [5], first compound 8 µg/mL, partner 0.0625 µg/mL | 0.0435
S. pneumoniae D39V [5], first compound 8 µg/mL, partner 0.125 µg/mL | 0.0398
